Reference: patent publication US9657014B2, “Substituted 1,6-naphthyridines” (Hoffmann-La Roche Inc., priority 2012, dated 2017)

System: human embryonic stem cell derived neural stem cells (NSCs)
Experiment: Neural stem cell proliferation assay (neurogenesis assay)
Type: cell-based
Details: Homo sapiens, Neural stem cell, 96 h, concentration at which 150% activity of control (100%) is reached, ATP levels (CellTiterGlo) after 4 days incubation
Description: Neural Stem Cell Proliferation Assay
Neurogenic properties of small molecules are determined based on the proliferation of human embryonic stem cell derived neural stem cells (NSCs) which were derived via a dual smad inhibition as previously described (Chambers, S. M., et al., Highly efficient neural conversion of human ES and iPS cells by dual inhibition of SMAD signaling, Nature biotechnology, 2009. 27 (3): p. 275-80.)
Compounds respond is measured by the increase in cells based on ATP levels (Promega:CellTiterGlo®) after an incubation period of 4 days.
NSCs are thawed and expanded over 3 passages. On the 14th day, NSCs are seeded in Polyornithin/Laminin coated 384 well plates at a cell density of 21,000 cells/cm^2 in a media volume of 38 μl.
4 hours after cell seeding, compound solutions are added at a volume of 2 μl. Stock solutions of the compounds (water, 5% DMSO) are diluted to obtain a dose response (11 points, dilution factor is 2), ranging from 8 μM to 8 nM. Controls are run to consistently determine the neurogenic properties of the cells:
Negative (neutral) control is cell culture Media (final DMSO concentration: 0.25%).
Positive controls are: • 1. cell culture Media+100 ng/ml FGF2 (final DMSO concentration: 0.1%) • 2. cell culture Media+20 ng/ml EGF (final DMSO concentration: 0.1%) • 3. cell culture Media+100 ng/ml Wnt3a (final DMSO concentration: 0.1%)
After 4 days incubation at 37° C., 5% CO2, the amount of ATP per well is quantified. The ATP concentration is proportional to the cell number. ATP is quantified by using the Promega CellTiterGlo® kit. The CellTiterGlo® reagents contain a cell lysis buffer, a thermo stable luciferase (UltraGlo™ recombinant luciferase), magnesium and luciferin. Luciferin reacts with ATP producing oxyluciferin, AMP and light. The luminescence signal is proportional to the ATP content.
The value of negative (neutral) control is determined for each assay plate by taking the average of 16 negative control wells. The neurogenic compound response is calculated for each compound as (compound/Negative Control)*100.
The values of EC150 from the dose response curve are determined for each test compound. The EC150 is the compound concentration at which 150% activity of control (100%) is reached.

Row | SMILES | EC (150% of control) (Table 1, novel compounds) [µM] | EC (150% of control) (Table 2, known compounds) [µM]
1 | NC(=O)c1ccc2cncc(-c3ccc4c(c3)OCCO4)c2n1 [Example 92, 8-(2,3-Dihydrobenzo[b][1,4]dioxin-6-yl)-1,6-naphthyridine-2-carboxamide] | 0.03 | 
2 | COCCNC(=O)c1ccc2cncc(-c3ccncc3)c2n1 [Example 18, N-(2-Methoxyethyl)-8-(pyridin-4-yl)-1,6-naphthyridine-2-carboxamide] | 0.31 | 
3 | NC(=O)c1ccc2cncc(-c3ccccc3F)c2n1 [Example 79, 8-(2-Fluorophenyl)-1,6-naphthyridine-2-carboxamide] | 0.03 | 
4 | COc1ccc(-c2cncc3ccc(C(=O)NCc4ccncc4)nc23)cc1 [Example 181, 8-(4-Methoxy-phenyl)-[1,6]naphthyridine-2-carboxylic acid (pyridin-4-ylmethyl)-amide] |  | 0.04
5 | O=C(NCCCn1ccnc1)c1ccc2cncc(-c3ccncc3)c2n1 [Example 41, N-(3-(1H-Imidazol-1-yl)propyl)-8-(pyridin-4-yl)-1,6-naphthyridine-2-carboxamide] | 1.7 | 
6 | COc1ccc(-c2cncc3ccc(C(=O)NCc4cccnc4)nc23)cc1 [Example 22, 8-(4-Methoxyphenyl)-N-(pyridin-3-ylmethyl)-1,6-naphthyridine-2-carboxamide] | 0.03 | 
7 | NC(=O)c1ccc2cncc(-c3ccc(Cl)c(F)c3)c2n1 [Example 169, 8-(4-Chloro-3-fluorophenyl)-1,6-naphthyridine-2-carboxamide] | 0.03 | 
8 | CC(C)(C)CNC(=O)c1ccc2cncc(-c3ccc(F)c(F)c3)c2n1 [Example 121, 8-(3,4-Difluorophenyl)-N-neopentyl-1,6-naphthyridine-2-carboxamide] | 0.26 | 
9 | O=C(c1ccc2cncc(-c3ccccc3)c2n1)N1CCN(c2ccccn2)CC1 [Example 192, (8-Phenyl-[1,6]naphthyridin-2-yl)-(4-pyridin-2-yl-piperazin-1-yl)-methanone] |  | 1.4
10 | O=C(c1ccc2cncc(-c3ccc(Cl)cc3)c2n1)N1CCCCC1 [Example 56, (8-(4-Chlorophenyl)-1,6-naphthyridin-2-yl)(piperidin-1-yl)methanone] | 1.51 | 
11 | O=C(NCc1ccccn1)c1ccc2cncc(-c3ccc(Cl)cc3)c2n1 [Example 46, 8-(4-Chlorophenyl)-N-(pyridin-2-ylmethyl)-1,6-naphthyridine-2-carboxamide] | 0.51 | 
12 | NC(=O)c1ccc2cncc(-c3ccc(-n4cccn4)cc3)c2n1 [Example 103, 8-(4-(1H-Pyrazol-1-yl)phenyl)-1,6-naphthyridine-2-carboxamide] | 0.01 | 
13 | O=C(NCC1CC1)c1ccc2cncc(-c3ccc(Cl)cc3)c2n1 [Example 67, 8-(4-Chlorophenyl)-N-(cyclopropylmethyl)-1,6-naphthyridine-2-carboxamide] | 0.01 | 
14 | CC(NC(=O)c1ccc2cncc(-c3ccc(Cl)cc3)c2n1)C(C)(C)O (stereo not shown) [Example 162, 8-(4-Chlorophenyl)-N-(3-hydroxy-3-methylbutan-2-yl)-1,6-naphthyridine-2-carboxamide] | 0.06 | 
15 | O=C(c1ccc2cncc(-c3cc4ccccc4o3)c2n1)N1CCCCC1 [Example 205, (8-Benzofuran-2-yl-[1,6]naphthyridin-2-yl)-piperidin-1-yl-methanone] |  | 3.5
16 | O=C(NCCCn1ccnc1)c1ccc2cncc(-c3ccc(Cl)cc3)c2n1 [Example 37, N-(3-(1H-Imidazol-1-yl)propyl)-8-(4-chlorophenyl)-1,6-naphthyridine-2-carboxamide] | 0.12 | 
17 | Cc1cnc(CNC(=O)c2ccc3cncc(-c4ccccc4)c3n2)cn1 [Example 190, 8-Phenyl-[1,6]naphthyridine-2-carboxylic acid (5-methyl-pyrazin-2-ylmethyl)-amide] |  | 0.5
18 | COc1ccc(-c2cncc3ccc(C(N)=O)nc23)cn1 [Example 89, 8-(6-Methoxypyridin-3-yl)-1,6-naphthyridine-2-carboxamide] | 0.09 | 
19 | Cc1ccnc(-c2cncc3ccc(C(=O)NCc4ccccc4)nc23)c1 [Example 24, N-Benzyl-8-(4-methylpyridin-2-yl)-1,6-naphthyridine-2-carboxamide] | 0.94 | 

Row | SMILES | EC (150% of control) (Table 1, novel compounds) [µM] | EC (150% of control) (Table 2, known compounds) [µM]
20 | CC(C)NC(=O)c1ccc2cncc(-c3ccc(Cl)cc3)c2n1 [Example 70, 8-(4-Chlorophenyl)-N-isopropyl-1,6-naphthyridine-2-carboxamide] | 0.6 | 
21 | COc1ccc(-c2cncc3ccc(C(=O)NCCCn4ccnc4)nc23)cc1 [Example 179, 8-(4-Methoxy-phenyl)-[1,6]naphthyridine-2-carboxylic acid (3-imidazol-1-yl-propyl)-amide] |  | 0.7
22 | O=C(NCc1ccncc1)c1ccc2cncc(-c3ccsc3)c2n1 [Example 198, 8-Thiophen-3-yl-[1,6]naphthyridine-2-carboxylic acid (pyridin-4-ylmethyl)-amide] |  | 0.12
23 | CN1CCN(C(=O)c2ccc3cncc(-c4ccc(Cl)cc4)c3n2)CC1 [Example 73, (8-(4-Chlorophenyl)-1,6-naphthyridin-2-yl)(4-methylpiperazin-1-yl)methanone] | 0.64 | 
24 | CS(=O)(=O)c1ccc(CNC(=O)c2ccc3cncc(-c4ccc(F)c(F)c4)c3n2)cc1 [Example 115, 8-(3,4-Difluorophenyl)-N-(4-(methylsulfonyl)benzyl)-1,6-naphthyridine-2-carboxamide] | 1.95 | 
25 | O=C(NCc1ccccc1)c1ccc2cncc(-c3cccc(Cl)c3)c2n1 [Example 14, N-Benzyl-8-(3-chlorophenyl)-1,6-naphthyridine-2-carboxamide] | 0.54 | 
26 | COc1ccc(-c2cncc3ccc(C(=O)N(C)Cc4ccccc4)nc23)cc1 [Example 33, N-Benzyl-8-(4-methoxyphenyl)-N-methyl-1,6-naphthyridine-2-carboxamide] | 0.22 | 
27 | CC(NC(=O)c1ccc2cncc(-c3cccc(Cl)n3)c2n1)C(C)(C)O (stereo not shown) [Example 175, 8-(6-Chloropyridin-2-yl)-N-(3-hydroxy-3-methylbutan-2-yl)-1,6-naphthyridine-2-carboxamide] | 1.03 | 
28 | CN(CC1CC1)C(=O)c1ccc2cncc(-c3ccc(Cl)cc3)c2n1 [Example 66, 8-(4-Chlorophenyl)-N-(cyclopropylmethyl)-N-methyl-1,6-naphthyridine-2-carboxamide] | 0.7 | 
29 | O=C(c1ccc2cncc(-c3ccc(Cl)c(F)c3)c2n1)N1CCC(O)C1 (stereo not shown) [Example 131, (8-(4-Chloro-3-fluorophenyl)-1,6-naphthyridin-2-yl)(3-hydroxypyrrolidin-1-yl)methanone] | 0.07 | 
30 | CS(=O)(=O)CCNC(=O)c1ccc2cncc(-c3cc(F)ccc3F)c2n1 [Example 138, 8-(2,5-Difluorophenyl)-N-(2-(methylsulfonyl)ethyl)-1,6-naphthyridine-2-carboxamide] | 0.26 | 
31 | COCCNC(=O)c1ccc2cncc(Br)c2n1 [Example 1, 8-Bromo-N-(2-methoxyethyl)-1,6-naphthyridine-2-carboxamide] | 1.2 | 
32 | O=C(NCc1ccccc1)c1ccc2cncc(-c3ccccc3Cl)c2n1 [Example 15, N-Benzyl-8-(2-chlorophenyl)-1,6-naphthyridine-2-carboxamide] | 0.58 | 
33 | O=C(NCCCN1CCOCC1)c1ccc2cncc(-c3ccccc3)c2n1 [Example 188, 8-Phenyl-[1,6]naphthyridine-2-carboxylic acid (3-morpholin-4-yl-propyl)-amide] |  | 6.8
34 | NC(=O)c1ccc2cncc(Br)c2n1 [Example 206, 8-Bromo-1,6-naphthyridine-2-carboxamide] |  | 0.8
35 | O=C(NCc1ccncc1)c1ccc2cncc(-c3ccncc3)c2n1 [Example 32, 8-(Pyridin-4-yl)-N-(pyridin-4-ylmethyl)-1,6-naphthyridine-2-carboxamide] | 0.29 | 
36 | CS(=O)(=O)NNC(=O)c1ccc2cncc(-c3ccc(Cl)cc3)c2n1 [Example 49, N′-(8-(4-Chlorophenyl)-1,6-naphthyridine-2-carbonyl)methanesulfonohydrazide] | 0.07 | 
37 | COc1ccccc1-c1cncc2ccc(C(=O)NCc3ccccc3)nc12 [Example 12, N-Benzyl-8-(2-methoxyphenyl)-1,6-naphthyridine-2-carboxamide] | 0.17 | 
